{"source": "paper PMC5719400", "about": "“Engineering an aldehyde dehydrogenase toward its substrates, 3-hydroxypropanal and NAD^+, for enhancing the production of 3-hydroxypropionic acid” (Scientific Reports, 2017)", "target": "T1, KGSADH (α-ketoglutaric semialdehyde dehydrogenase) (Azospirillum brasilense, UniProt Q1JUP4)", "T1 construct": "gene araE; N-terminal His6-tag (pQE80L), expressed in E. coli DH10β, Ni-NTA purified; catalytic residues E253 and C287", "T1 sequence (Q1JUP4 2-481)": "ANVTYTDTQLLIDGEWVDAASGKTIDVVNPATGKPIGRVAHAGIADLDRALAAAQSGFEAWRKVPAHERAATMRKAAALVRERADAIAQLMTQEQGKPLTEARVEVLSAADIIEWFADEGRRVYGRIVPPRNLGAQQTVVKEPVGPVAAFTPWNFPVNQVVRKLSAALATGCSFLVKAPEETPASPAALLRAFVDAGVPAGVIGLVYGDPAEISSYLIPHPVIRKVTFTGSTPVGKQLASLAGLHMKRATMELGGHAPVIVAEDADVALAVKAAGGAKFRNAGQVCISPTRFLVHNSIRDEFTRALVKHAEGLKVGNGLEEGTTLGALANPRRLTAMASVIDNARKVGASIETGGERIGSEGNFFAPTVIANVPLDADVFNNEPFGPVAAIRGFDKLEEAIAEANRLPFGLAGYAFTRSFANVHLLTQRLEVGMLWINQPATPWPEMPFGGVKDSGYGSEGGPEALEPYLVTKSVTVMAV", "assay": "product inhibition, A340 activity assay", "type": "biochemical", "conditions": "2 mM NAD+, 100 mM phosphate pH 8"}
{"smiles": "O=C(O)CCO", "note": "[3-HP, 3-hydroxypropionic acid]", "values": [{"measurement": "% decrease in activity at 1 M", "value": "~ 40%"}]}
